Measurements taken from patent US20230312482A1, “SOS1 INHIBITORS” (Mirati Therapeutics, Inc., priority 2020, published 2023).
pIC50, pKi: −log10 of the molar value.

Experiments:
[1] = molecular target: T1, recombinant human SOS1 polypeptide (amino acids 560-1049) (Homo sapiens, UniProt Q07889); assay: HTRF displacement assay, binding to SOS1; conditions: HTRF displacement of Cy5 labelled tracer, 1-hour incubation, Morrison equation
T1 construct: corresponding to amino acids 560-1049, expressed in E. Coli; His (N); TEV site (N); made in house; host or cells: E. coli
T1 sequence (Q07889 560-1049): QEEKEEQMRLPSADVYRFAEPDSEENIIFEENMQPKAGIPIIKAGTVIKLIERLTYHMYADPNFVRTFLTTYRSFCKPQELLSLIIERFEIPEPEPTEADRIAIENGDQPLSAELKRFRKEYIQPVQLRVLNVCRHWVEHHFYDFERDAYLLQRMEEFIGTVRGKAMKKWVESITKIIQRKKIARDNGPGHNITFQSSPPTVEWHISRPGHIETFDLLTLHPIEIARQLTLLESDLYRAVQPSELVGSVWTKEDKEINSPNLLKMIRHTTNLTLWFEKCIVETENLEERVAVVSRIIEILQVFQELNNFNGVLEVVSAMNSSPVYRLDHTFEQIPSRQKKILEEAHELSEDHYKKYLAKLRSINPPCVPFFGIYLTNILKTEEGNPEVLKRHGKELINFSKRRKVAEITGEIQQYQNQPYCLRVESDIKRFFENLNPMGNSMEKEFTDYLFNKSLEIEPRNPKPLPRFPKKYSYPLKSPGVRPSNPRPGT
Method: The ability of a compound of Formula (I) to bind to SOS1 was measured using a HTRF displacement assay. […] The HTRF ratio was calculated using the formula: [emission ⅟emission 2]*10000.
Background signals were calculated from well with a 10 µM inhibitor, known to inhibit 100% at that concentration. The background subtracted signals were converted to % binding relative to DMSO controls. Data were analyzed using XLFIT software (IDBS) using a Morrison equation for competitive binding and Ki’s were generated for compound of Formula (I).

[2] = tested on: pERK in MKN1 cells or H358; assay: pERK inhibition in MKN1 or H358 cells (In-Cell Western); type: cell-based; conditions: GAPDH normalized, 1 hour with compound, MKN1 or H358 cells (not specified which)
Method: This Example illustrates that exemplary compounds of the present invention prevent KRas-mediated GTP nucleotide exchange mediated by SOS1 to inhibit KRas activity thereby inhibiting the generation of the downstream effector pERK.
(§1) MKN1 cells (15,000/w) or H358 (30,000/w) were seeded in a black clear flat bottom 96-well cell culture plate (Corning, #3904) and incubated at 37° C. overnight. Assay day 1, cells were dosed with compounds of Formula (I) with a […] starting concentration and serially diluted 3x for a total of 9 concentrations. The cells were incubated for 1 hour with the compounds solubilized in DMSO at 37° C. Cells were immediately fixed by adding 50 µL of 4% formaldehyde to all wells in a fume hood and the plates were incubated for 20 minutes at room temperature. The formaldehyde was discarded from the plates and 150 µL of ice-cold methanol was added to permeabilize the cells for 10 minutes at -20° C. The methanol was discarded from each of the plates and any liquid remaining in the plate by tapping the plate against paper towels. Cells were then blocked with 150 µL of Odyssey blocking buffer (LI-COR Biosciences #927-50010) using 0.05% Tween for 1 hour at room temperature on a shaker. The blocking buffer was discarded and 50 µL of primary antibodies pERK (cell signaling Technology #9101L; Rabbit, 1:500) and GapDH (Millipore #MAB34; Mouse, 1:5000) diluted in Odyssey blocking buffer was added. The plates were incubated overnight at 4° C. on a shaker.
On Assay day 2, the primary antibody solution was removed. Each plate was washed 3x times with 150 µL of 1x PBST (PBS + 0.1 % Tween 20) and incubated with 50 µL of secondary antibodies: Anti-Rabbit (LI-COR Biosciences #926-32211) and Anti-Mouse (LI-COR Biosciences #68070) at 1:800 dilution in Odyssey blocking buffer with Tween at room temperature on a shaker for 2 hours (protected from light). The secondary antibody solution as removed and each plate was washed with PBST 3x times. Any liquid remaining was discarded and the plate was imaged using the Licor Odyssey machine according to the manufacturer’s instruction, using a set focus length at 3 mm and both 800 nm and 700 nm filters. The GAPDH normalized scan values for each well were divided by the average of vehicle wells to get the % of pERK inhibition. The IC50 values were then calculated with the Graph pad Prism software.

pERK in NCI-H1435 cells = assay: pERK inhibition in NF-1 mutant cell line NCI-H1435; type: cell-based; conditions: NCI-H1435 cells (NF-1 mutation), 1 hour with compound
From the text: This Example illustrates that exemplary compounds of the present invention prevent increased KRas-mediated GTP nucleotide exchange mediated by SOS1 in NF-1 mutant cell lines to inhibit KRas activity thereby inhibiting the generation of the downstream effector pERK.
as §1, with “A cell line harboring activating mutation in NF-1 gene, NCI-H1435 (ATCC CRL-5870) and a cell line harboring activating mutation in NF-2 gene, NCI-H2052 (ATCC CRL-5915) were employed in these studies. NCI-H1435 and NCI-2052” for “MKN1”, “(15,000/w)” for “(15,000/w) or H358 (30,000/w)”
On Assay day 2, the primary antibody solution was removed. […] The IC50 values were then calculated with the Graph pad Prism software.

pERK in NCI-H2052 cells = assay: pERK inhibition in NF-2 mutant cell line NCI-H2052; type: cell-based; conditions: Homo sapiens, NCI-H2052 cells (NF-2 mutation), 1 hour with compound

pKi [1] | pIC50 (pERK in NCI-H1435 cells) | pIC50 (pERK in NCI-H2052 cells) | Structure (SMILES) | pIC50 [2]
7.22 | 5.96 | < 5.00 | Cc1c([C@@H](C)Nc2n[nH]c(=O)c3ccc(N4CCOCC4)cc23)cccc1C(F)(F)F [Example 1-1] | 5.88
8.00 | 6.51 | 6.12 | CNCc1ccccc1-c1csc([C@@H](C)Nc2n[nH]c(=O)c3ccc(N4CCOCC4)cc23)c1 [Example 1-2] | 6.69
7.85 | 6.28 | 6.00 | CNCc1ccccc1-c1csc([C@@H](C)Nc2nn(C)c(=O)c3ccc(N4CCOCC4)cc23)c1 [Example 1-3, (R)methyl-4-((1-(4-(2-((methylamino)methyl)phenyl)thiophenyl)ethyl)amino)-6-morpholinophthalazin-1 (2H)-one] | 6.58
5.52 | – | – | Cc1c([C@@H](C)Nc2nn(C)c(=O)c3ccc(N4CCOCC4)cc23)cccc1C(F)(F)F [Example 1-4] | –
– | – | – | Cc1c([C@@H](C)Nc2nn(C)c(=O)c3ccc(N4CCNCC4)cc23)cccc1C(F)(F)F [Example 1-5] | 6.06
– | – | – | Cc1c([C@@H](C)Nc2n[nH]c(=O)c3ccc(N4CCNCC4)cc23)cccc1C(F)(F)F [Example 1-6] | 6.94
